Measured values from patent US7241570B2, “Method of screening for agents that regulate the shedding of membrane bound proteins and methods of use” (University of Utah Research Foundation, priority 2001, dated 2007).

Legend:
[1] = test system: TNFα release from liver and spleen cell suspensions; test: TNFα ectodomain shedding from liver and spleen cell suspensions (ELISA); type: cell-based, mouse; details: LPS 5 μg/mL, PMA 50 ng/mL, liver and spleen cell suspensions of newborn mice
Protocol: TACE was originally identified as the enzyme that proteolytically releases TNFα from the cell surface. Black, R. et al. Nature 385, 729-733 (1997); Moss, M. L. et al. Nature 385, 733-736 (1997). Whether deleting DGKδ affected ectodomain shedding of TNFα from liver and spleen cell suspensions was tested—where hematopoietic activity is highest in newborn mice. Tamura, K. et al. Cell 102, 221-231 (2000). To induce release on TNFα, the cell suspensions were stimulated with lipopolysaccharide (LPS, […]), PMA (50 ng/mL), or a combination of LPS (5 μg/mL) and PMA (50 ng/mL). As measured by ELISA, both agents induced release of TNFα into the medium, with LPS inducing a five-fold increase and PMA causing a three-fold increase. Combining LPS and PMA increased TNFα shedding twenty-fold. […] Reddy, P. et al. J. Biol. Chem. 275, 14608-14614 (2000)

[2] = test system: β-APP shedding from embryonic fibroblasts; test: Release of endogenous β-APP from embryonic fibroblasts; type: cell-based, mouse
Text: TACE is the only enzyme known to shed soluble TGFα, a process enhanced by stimulation with serum or PMA. Peschon, J. J. et al. Science 282, 1281-1284 (1998). It is not known whether or not the cytoplasmic tail of TACE is required to activate TGFα shedding. To test if DGKδ affected release of TGFα, the amounts of soluble TGFα in the culture media of dgkd^−/− and wild-type embryonic fibroblasts transfected with pro-TGFα were compared. […] Supporting a role for DGKδ in stimulated TGFα shedding, PMA-induced shedding of TGFα by dgkd^−/− cells was approximately 25% that of stimulated wild-type cells (FIG. 4A, left). […] Since TACE is the only enzyme known to shed TGFα, DGKδ was likely affecting TACE. TACE is also known to cleave β-APP, so the release of endogenous β-APP from embryonic fibroblasts was examined next. Reddy, P. et al. J. Biol. Chem. 275, 14608-14614 (2000).

[3] = test system: DGKδ and TACE; test: Co-immunoprecipitation of DGKδ and myc-TACE overexpressed in COS7 cells; type: cell-based; details: COS7 cells after starvation (0.5% serum for 2 hrs)
Text: According to previous experiments, DGKδ appears to regulate the activity of TACE toward some of its substrates. Based on the data, however, it is not clear whether DGKδ directly activates TACE or indirectly affects its activity through another protein. It was hypothesized that in order to regulate TACE, DGKδ must associate with it or a complex of proteins that contains TACE. To address whether this occurs in vivo, the enzymes were overexpressed in COS7 cells and then co-immunoprecipitation analysis was performed. Myc-tagged TACE in cell lysates was immunoprecipitated with an anti-myc monoclonal antibody, and then immune complexes were analyzed for co-immunoprecipitation of DGKδ by immunoblotting. When cells were grown in normal medium (10% FBS) DGKδ clearly co-immunoprecipitated with TACE (FIG. 6 left). Controls using normal IgG for immunoprecipitation instead of anti-myc antibody, or where anti-myc was used, but myc-TACE was not included in the transfection, established the specificity of DGKδ-TACE co-immunoprecipitation. Two agents previously shown to induce TACE activity are serum factors and PMA. […] Thus, stimuli that increase TACE activity enhance an interaction between DGKδ and TACE, providing further evidence that DGKδ positively regulates TACE activity.

[4] = test system: phosphatidylinositol 5-kinases; details: cited from earlier work
[5] = test system: phosphorylated ERK1 and 2; test: ERK phosphorylation after exogenous EGF in primary embryonic fibroblasts (immunoblot densitometry); type: cell-based, mouse
Text: Whether signaling downstream of EGFR was affected in DGKδ mutant mice was also examined. Since the MAPK pathway is a major route of EGFR signaling, ERK phosphorylation was examined in cell lines developed from knockout mice. Prenzel, N., et al. Endocrine-Related Cancer 8, 11-31 (2001). In primary embryonic fibroblasts from wild-type mice, exogenous EGF caused a 2.2 fold increase in phosphorylated ERK1 and 2 as judged by densitometry of the immunoblot bands (FIG. 3). […] Activation of EGFR signaling is known to mediate stress fiber formation induced by serum factors. Prenzel, N., et al. Endocrine-Related Cancer 8, 11-31 (2001). […] Thus, whether DGKδ affects the activity of TACE was examined next.

CCCCCCCCCCCCCC(=O)O[C@@H]1[C@@H](C)[C@@]2(O)[C@@H](C=C(CO)C[C@]3(O)C(=O)C(C)=C[C@@H]23)[C@@H]2C(C)(C)[C@]12OC(C)=O [PMA]
increase in release of TNFα into the medium [1]: three-fold
increase in β-APP shedding ([2]; dgkd+/+ embryonic fibroblasts): 6-8 fold
increase in β-APP shedding ([2]; dgkd−/− embryonic fibroblasts): moderate increase
co-immunoprecipitation of DGKδ and TACE [3]: significantly increased

phosphatidic acid [PA]
activity of phosphatidylinositol 5-kinases in the presence of PA [4]: 8-14 fold

lipopolysaccharide [LPS]
increase in release of TNFα into the medium [1]: five-fold

EGF: exogenous EGF, EGF receptor ligand
increase in phosphorylated ERK1 and 2 ([5]; primary embryonic fibroblasts from DGKδ null mice): 2.1 fold
increase in phosphorylated ERK1 and 2 ([5]; primary embryonic fibroblasts from wild-type mice, densitometry of immunoblot bands): 2.2 fold
